From PubChem BioAssay (NCI)
Several values for one entry are separate records, joined by “and”; a condition that tells them apart may be missing. Identical values can stand only once.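 Briefly, cells in 96-well plates were exposed to five compound concentrations for 48 h, and endpoints were estimated by linear interpolation. At the GI50, growth is halved. TGI: total growth inhibition.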

Test system: A549 NSCLC
Experiment: NCI anticancer screen, dose series, 48 h

Compound | GI50 | TGI
CC(SC(C)C(=O)N/N=C/c1cccc(Cl)c1)C(=O)N/N=C\c1cccc(Cl)c1 (centres undefined) | 3.3 µM | 12.3 µM
CCOC(=O)/C=C/C(C(=O)/C=C/c1ccc(OC2CCCCO2)c(OC)c1)=C(O)\C=C\c1ccc(OC2CCCCO2)c(OC)c1 (centres undefined) | 13.5 µM | 39 µM
Cc1ccc(Cl)cc1Nc1nc(C(F)(F)F)ccc1C(=O)N1CCN(c2ccc(F)cc2)CC1 | 15.3 µM | 37.1 µM
O=C(Nc1ccc(OS(=O)(=O)c2ccccc2)cc1)C12CC3CC(CC(C3)C1)C2 | 6.9 µM | > 100 µM
O=S(=O)([O-])c1ccc2c(c1)-c1nc-2nc2[n-]c(nc3nc(nc4[n-]c(n1)c1ccc(S(=O)(=O)[O-])cc41)-c1cc(S(=O)(=O)[O-])ccc1-3)c1ccc(S(=O)(=O)[O-])cc21.[Cu+2].[Na+] | 24.1 µM | > 100 µM
CCN1CCN(c2ccc(Nc3cc(N(C)C(=O)Nc4c(Cl)c(OC)cc(OC)c4Cl)ncn3)cc2)CC1 | 3.13 µM | 12.1 µM
CC(C)c1ccc(Nc2ccc3c(OCCCN4CCN(C)CC4)cccc3n2)cc1 | 15.6 µM | 29.8 µM
COc1ccc(N(C)c2ncnc3occ(C)c23)cc1 | < 0.01 µM | > 100 µM
COc1ccc2c(c1)C(C)Cc1c(Cl)ncnc1N2C (centres undefined) | 0.432 µM | > 100 µM
COCCOc1cc(F)c2c(Nc3ccc(NC(=O)Cn4cc(C(C)C)nn4)cc3)ncnc2c1 | > 100 µM | > 100 µM
C#Cc1cccc(Nc2ncnc3cc(OC)c(OCCCCCCC(=O)NO)cc23)c1 | 0.404 µM | 4.45 µM
Cc1nnc(S(=O)(=O)c2ccc(N=Nc3c(N)nc(N)nc3N)cc2)s1 | – | > 100 µM
O=c1n(CC2CO2)c(=O)n(CC2CO2)c(=O)n1CC1CO1 (centres undefined) | 2.04 µM | 134 µM and > 100 µM
Cc1ccc(C(SCC(N)C(=O)O)(c2ccccc2)c2ccc(C)cc2)cc1 (centres undefined) | 0.466 µM | 45.6 µM
COc1cc(Nc2cn[nH]c2-c2ccc(Cl)cc2)cc(OC)c1OC | 5.96 µM | > 100 µM
O=C(c1ccccc1)c1cc(Cl)ccc1OCCCCN1CCN(CCCCOc2ccc(Cl)cc2C(=O)c2ccccc2)CC1 | 6.6 µM | 20.9 µM
CNCCNc1c2c(c(NCCNC)c3c(CN(C)C)c[nH]c13)C(=O)c1ccccc1C2=O | 3.42 µM | 11.2 µM
Clc1ccc2c(NCCCNc3nccc(Nc4ccc(Br)cc4)n3)ccnc2c1 | 1.78 µM | 3.52 µM

Test system: ACHN renal
Experiment: NCI anticancer screen, dose series, 48 h

Compound | GI50 | TGI
CC(SC(C)C(=O)N/N=C/c1cccc(Cl)c1)C(=O)N/N=C\c1cccc(Cl)c1 (centres undefined) | 5.53 µM | > 100 µM
CCOC(=O)/C=C/C(C(=O)/C=C/c1ccc(OC2CCCCO2)c(OC)c1)=C(O)\C=C\c1ccc(OC2CCCCO2)c(OC)c1 (centres undefined) | 3.61 µM | 12.5 µM
Cc1ccc(Cl)cc1Nc1nc(C(F)(F)F)ccc1C(=O)N1CCN(c2ccc(F)cc2)CC1 | 11.8 µM | 47.7 µM
O=C(Nc1ccc(OS(=O)(=O)c2ccccc2)cc1)C12CC3CC(CC(C3)C1)C2 | > 100 µM | > 100 µM
O=S(=O)([O-])c1ccc2c(c1)-c1nc-2nc2[n-]c(nc3nc(nc4[n-]c(n1)c1ccc(S(=O)(=O)[O-])cc41)-c1cc(S(=O)(=O)[O-])ccc1-3)c1ccc(S(=O)(=O)[O-])cc21.[Cu+2].[Na+] | > 74.3 µM | > 100 µM
CCN1CCN(c2ccc(Nc3cc(N(C)C(=O)Nc4c(Cl)c(OC)cc(OC)c4Cl)ncn3)cc2)CC1 | 2.18 µM | 13.6 µM
CC(C)c1ccc(Nc2ccc3c(OCCCN4CCN(C)CC4)cccc3n2)cc1 | 12.6 µM | 28 µM
COc1ccc(N(C)c2ncnc3occ(C)c23)cc1 | 0.0193 µM | > 100 µM
COc1ccc2c(c1)C(C)Cc1c(Cl)ncnc1N2C (centres undefined) | 0.852 µM | > 100 µM
COCCOc1cc(F)c2c(Nc3ccc(NC(=O)Cn4cc(C(C)C)nn4)cc3)ncnc2c1 | 51.5 µM | > 100 µM
C#Cc1cccc(Nc2ncnc3cc(OC)c(OCCCCCCC(=O)NO)cc23)c1 | 0.127 µM | 2.48 µM
Cc1nnc(S(=O)(=O)c2ccc(N=Nc3c(N)nc(N)nc3N)cc2)s1 | – | > 100 µM
O=c1n(CC2CO2)c(=O)n(CC2CO2)c(=O)n1CC1CO1 (centres undefined) | 3.68 µM and 0.504 µM | 140 µM and > 100 µM
Cc1ccc(C(SCC(N)C(=O)O)(c2ccccc2)c2ccc(C)cc2)cc1 (centres undefined) | 1.78 µM | 36.3 µM
COc1cc(Nc2cn[nH]c2-c2ccc(Cl)cc2)cc(OC)c1OC | 7.41 µM | > 76.8 µM
O=C(c1ccccc1)c1cc(Cl)ccc1OCCCCN1CCN(CCCCOc2ccc(Cl)cc2C(=O)c2ccccc2)CC1 | 4.64 µM | 16.1 µM
CNCCNc1c2c(c(NCCNC)c3c(CN(C)C)c[nH]c13)C(=O)c1ccccc1C2=O | 3.52 µM | 14.4 µM
Clc1ccc2c(NCCCNc3nccc(Nc4ccc(Br)cc4)n3)ccnc2c1 | 1.66 µM | 3.2 µM

Test system: DU-145 prostate
Experiment: NCI anticancer screen, dose series, 48 h

Compound | GI50 | TGI
CC(SC(C)C(=O)N/N=C/c1cccc(Cl)c1)C(=O)N/N=C\c1cccc(Cl)c1 (centres undefined) | 6.58 µM | 25.2 µM
CCOC(=O)/C=C/C(C(=O)/C=C/c1ccc(OC2CCCCO2)c(OC)c1)=C(O)\C=C\c1ccc(OC2CCCCO2)c(OC)c1 (centres undefined) | 7.01 µM | 42.6 µM
Cc1ccc(Cl)cc1Nc1nc(C(F)(F)F)ccc1C(=O)N1CCN(c2ccc(F)cc2)CC1 | 17.4 µM | 36.6 µM
O=C(Nc1ccc(OS(=O)(=O)c2ccccc2)cc1)C12CC3CC(CC(C3)C1)C2 | > 100 µM | > 100 µM
O=S(=O)([O-])c1ccc2c(c1)-c1nc-2nc2[n-]c(nc3nc(nc4[n-]c(n1)c1ccc(S(=O)(=O)[O-])cc41)-c1cc(S(=O)(=O)[O-])ccc1-3)c1ccc(S(=O)(=O)[O-])cc21.[Cu+2].[Na+] | > 100 µM | > 100 µM
CCN1CCN(c2ccc(Nc3cc(N(C)C(=O)Nc4c(Cl)c(OC)cc(OC)c4Cl)ncn3)cc2)CC1 | 2.33 µM | 9.75 µM
CC(C)c1ccc(Nc2ccc3c(OCCCN4CCN(C)CC4)cccc3n2)cc1 | 13.9 µM | 26.9 µM
COc1ccc(N(C)c2ncnc3occ(C)c23)cc1 | < 0.01 µM | 0.0208 µM
COc1ccc2c(c1)C(C)Cc1c(Cl)ncnc1N2C (centres undefined) | 3.41 µM | > 74.1 µM
COCCOc1cc(F)c2c(Nc3ccc(NC(=O)Cn4cc(C(C)C)nn4)cc3)ncnc2c1 | > 100 µM | > 100 µM
C#Cc1cccc(Nc2ncnc3cc(OC)c(OCCCCCCC(=O)NO)cc23)c1 | 0.136 µM | 4.45 µM
Cc1nnc(S(=O)(=O)c2ccc(N=Nc3c(N)nc(N)nc3N)cc2)s1 | – | > 100 µM
O=c1n(CC2CO2)c(=O)n(CC2CO2)c(=O)n1CC1CO1 (centres undefined) | 11 µM and 3.22 µM | 66.2 µM and 127 µM and 37.3 µM
Cc1ccc(C(SCC(N)C(=O)O)(c2ccccc2)c2ccc(C)cc2)cc1 (centres undefined) | 0.287 µM | 2.66 µM
COc1cc(Nc2cn[nH]c2-c2ccc(Cl)cc2)cc(OC)c1OC | 8.73 µM | 42 µM
O=C(c1ccccc1)c1cc(Cl)ccc1OCCCCN1CCN(CCCCOc2ccc(Cl)cc2C(=O)c2ccccc2)CC1 | 2.74 µM | 10.1 µM
CNCCNc1c2c(c(NCCNC)c3c(CN(C)C)c[nH]c13)C(=O)c1ccccc1C2=O | 1.53 µM | 5.93 µM
Clc1ccc2c(NCCCNc3nccc(Nc4ccc(Br)cc4)n3)ccnc2c1 | 1.86 µM | 3.31 µM

Test system: NCI-H460 lung
Experiment: NCI anticancer screen, dose series, 48 h

Compound | GI50 | TGI
CC(SC(C)C(=O)N/N=C/c1cccc(Cl)c1)C(=O)N/N=C\c1cccc(Cl)c1 (centres undefined) | 2.34 µM | 4.92 µM
CCOC(=O)/C=C/C(C(=O)/C=C/c1ccc(OC2CCCCO2)c(OC)c1)=C(O)\C=C\c1ccc(OC2CCCCO2)c(OC)c1 (centres undefined) | 11.9 µM | 50.5 µM
Cc1ccc(Cl)cc1Nc1nc(C(F)(F)F)ccc1C(=O)N1CCN(c2ccc(F)cc2)CC1 | 16 µM | 36.9 µM
O=C(Nc1ccc(OS(=O)(=O)c2ccccc2)cc1)C12CC3CC(CC(C3)C1)C2 | 6.1 µM | > 100 µM
O=S(=O)([O-])c1ccc2c(c1)-c1nc-2nc2[n-]c(nc3nc(nc4[n-]c(n1)c1ccc(S(=O)(=O)[O-])cc41)-c1cc(S(=O)(=O)[O-])ccc1-3)c1ccc(S(=O)(=O)[O-])cc21.[Cu+2].[Na+] | 4.65 µM | > 100 µM
CCN1CCN(c2ccc(Nc3cc(N(C)C(=O)Nc4c(Cl)c(OC)cc(OC)c4Cl)ncn3)cc2)CC1 | 1.87 µM | 5.42 µM
CC(C)c1ccc(Nc2ccc3c(OCCCN4CCN(C)CC4)cccc3n2)cc1 | 5.44 µM | 18 µM
COc1ccc(N(C)c2ncnc3occ(C)c23)cc1 | < 0.01 µM | –
COc1ccc2c(c1)C(C)Cc1c(Cl)ncnc1N2C (centres undefined) | 0.493 µM | > 100 µM
COCCOc1cc(F)c2c(Nc3ccc(NC(=O)Cn4cc(C(C)C)nn4)cc3)ncnc2c1 | 51.3 µM | > 100 µM
C#Cc1cccc(Nc2ncnc3cc(OC)c(OCCCCCCC(=O)NO)cc23)c1 | 0.444 µM | 4.31 µM
Cc1nnc(S(=O)(=O)c2ccc(N=Nc3c(N)nc(N)nc3N)cc2)s1 | – | > 100 µM
O=c1n(CC2CO2)c(=O)n(CC2CO2)c(=O)n1CC1CO1 (centres undefined) | 6.61 µM and 0.743 µM | 32 µM and 29.6 µM and 12.2 µM
Cc1ccc(C(SCC(N)C(=O)O)(c2ccccc2)c2ccc(C)cc2)cc1 (centres undefined) | 0.307 µM | 12 µM
COc1cc(Nc2cn[nH]c2-c2ccc(Cl)cc2)cc(OC)c1OC | 3.7 µM | 19.1 µM
O=C(c1ccccc1)c1cc(Cl)ccc1OCCCCN1CCN(CCCCOc2ccc(Cl)cc2C(=O)c2ccccc2)CC1 | 2.17 µM | 4.87 µM
CNCCNc1c2c(c(NCCNC)c3c(CN(C)C)c[nH]c13)C(=O)c1ccccc1C2=O | 1.46 µM | 11.2 µM
Clc1ccc2c(NCCCNc3nccc(Nc4ccc(Br)cc4)n3)ccnc2c1 | 1.76 µM | 3.44 µM

Test system: SF-268 CNS
Experiment: NCI anticancer screen, dose series, 48 h

Compound | GI50 | TGI
CC(SC(C)C(=O)N/N=C/c1cccc(Cl)c1)C(=O)N/N=C\c1cccc(Cl)c1 (centres undefined) | 10.2 µM | 35.5 µM
CCOC(=O)/C=C/C(C(=O)/C=C/c1ccc(OC2CCCCO2)c(OC)c1)=C(O)\C=C\c1ccc(OC2CCCCO2)c(OC)c1 (centres undefined) | 4.88 µM | > 100 µM
Cc1ccc(Cl)cc1Nc1nc(C(F)(F)F)ccc1C(=O)N1CCN(c2ccc(F)cc2)CC1 | 15.8 µM | 36.5 µM
O=C(Nc1ccc(OS(=O)(=O)c2ccccc2)cc1)C12CC3CC(CC(C3)C1)C2 | > 100 µM | > 100 µM
O=S(=O)([O-])c1ccc2c(c1)-c1nc-2nc2[n-]c(nc3nc(nc4[n-]c(n1)c1ccc(S(=O)(=O)[O-])cc41)-c1cc(S(=O)(=O)[O-])ccc1-3)c1ccc(S(=O)(=O)[O-])cc21.[Cu+2].[Na+] | > 69.8 µM | > 100 µM
CCN1CCN(c2ccc(Nc3cc(N(C)C(=O)Nc4c(Cl)c(OC)cc(OC)c4Cl)ncn3)cc2)CC1 | 2.41 µM | 28 µM
CC(C)c1ccc(Nc2ccc3c(OCCCN4CCN(C)CC4)cccc3n2)cc1 | 12.2 µM | 27.4 µM
COc1ccc(N(C)c2ncnc3occ(C)c23)cc1 | 0.0101 µM | > 62.3 µM
COc1ccc2c(c1)C(C)Cc1c(Cl)ncnc1N2C (centres undefined) | 0.359 µM | 22.9 µM
COCCOc1cc(F)c2c(Nc3ccc(NC(=O)Cn4cc(C(C)C)nn4)cc3)ncnc2c1 | 37.5 µM | > 100 µM
C#Cc1cccc(Nc2ncnc3cc(OC)c(OCCCCCCC(=O)NO)cc23)c1 | 0.379 µM | 2.65 µM
Cc1nnc(S(=O)(=O)c2ccc(N=Nc3c(N)nc(N)nc3N)cc2)s1 | – | > 100 µM
O=c1n(CC2CO2)c(=O)n(CC2CO2)c(=O)n1CC1CO1 (centres undefined) | 11.7 µM and 3.66 µM | 241 µM and > 100 µM
Cc1ccc(C(SCC(N)C(=O)O)(c2ccccc2)c2ccc(C)cc2)cc1 (centres undefined) | 0.257 µM | 23.9 µM
COc1cc(Nc2cn[nH]c2-c2ccc(Cl)cc2)cc(OC)c1OC | 6.76 µM | > 70.5 µM
O=C(c1ccccc1)c1cc(Cl)ccc1OCCCCN1CCN(CCCCOc2ccc(Cl)cc2C(=O)c2ccccc2)CC1 | 7.03 µM | 23.8 µM
CNCCNc1c2c(c(NCCNC)c3c(CN(C)C)c[nH]c13)C(=O)c1ccccc1C2=O | 1.3 µM | 9.21 µM
Clc1ccc2c(NCCCNc3nccc(Nc4ccc(Br)cc4)n3)ccnc2c1 | 1.73 µM | 3.32 µM
